In patent publication US6933322B2, “Substituted naphthylenes for the treatment of non-insulin dependent diabetes mellitus” (Wyeth, priority 2002, dated 2005):

Row | melting point | SMILES
1 | 162 to 164 °C | CC(C)(C)c1ccc(-c2ccc(COc3cccc4cc(NS(=O)(=O)C(F)(F)F)ccc34)c(F)c2)cc1 [Example 6, N-[5-(4′-tert-Butyl-3-fluoro-biphenyl-4-ylmethoxy)-naphthalen-2-yl]-C,C,C-trifluoro-methanesulfonamide]
2 | 134 to 136 °C | O=S(=O)(Nc1ccc2c(OCc3ccc(-c4ccc(F)cc4)cc3F)cccc2c1)C(F)(F)F [Example 7, N-[5-(3,4′-Difluoro-biphenyl-4-ylmethoxy)-naphthalen-2-yl]-C,C,C-trifluoro-methanesulfonamide]
3 | 151 to 153 °C | O=S(=O)(Nc1ccc2c(OCc3ccc(-c4ccc(Cl)cc4)cc3F)cccc2c1)C(F)(F)F [Example 8, N-[5-(4′-Chloro-3-fluoro-biphenyl-4-ylmethoxy)-naphthalen-2-yl]-C,C,C-trifluoro-methanesulfonamide]
4 | 125 to 127 °C | COC1(F)C=CC(c2cccc(COc3cccc4cc(NS(=O)(=O)C(F)(F)F)ccc34)c2)=CC1 (centres unmarked) [Example 12, N-[5-(4′-Fluoro-4′-methoxy-biphenyl-3-ylmethoxy)-naphthalen-2-yl]-C,C,C-trifluoro-methanesulfonamide]
5 | 119 to 121 °C | O=S(=O)(Nc1ccc2c(OCc3ccccc3-c3ccccc3)cccc2c1)C(F)(F)F [Example 19, N-[5-(Biphenyl-2-ylmethoxy)-naphthalen-2-yl]-C,C,C-trifluoromethanesulfonamide]
6 | 123 to 125 °C | COc1ccc(-c2cccc(COc3cccc4cc(NS(=O)(=O)C(F)(F)F)ccc34)c2)cc1 [Example 20, C,C,C-Trifluoro-N-[5-(4′-methoxy-biphenyl-3-ylmethoxy)-naphthalen-2-yl]-methanesulfonamide]
7 | 155 to 157 °C | COc1ccc(-c2ccc(Cl)cc2)cc1COc1cccc2cc(NS(=O)(=O)C(F)(F)F)ccc12 [Example 21, N-[5-(4′-Chloro-4-methoxy-biphenyl-3-ylmethoxy)-naphthalen-2-yl]-C,C,C-trifluoromethanesulfonamide]
8 | 131 to 133 °C | O=S(=O)(Nc1ccc2c(OCc3ccc(-c4ccc(Cl)cc4)cc3)cccc2c1)C(F)(F)F [Example 22, N-[5-(4′-Chloro-biphenyl-4-ylmethoxy)-naphthalen-2-yl]-C,C,C-trifluoromethanesulfonamide]
9 | 124 to 125 °C | Cc1c(COc2cccc3cc(NS(=O)(=O)C(F)(F)F)ccc23)cccc1-c1ccccc1 [Example 23, C,C,C-Trifluoro-N-[5-(2-methyl-biphenyl-3-ylmethoxy)-naphthalen-2-yl]-methanesulfonamide]
10 | 119 to 120 °C | O=S(=O)(Nc1ccc2c(OCc3ccc(-c4ccccn4)cc3)cccc2c1)C(F)(F)F [Example 24, C,C,C-Trifluoro-N-[5-(4-pyridin-2-yl-benzyloxy)-naphthalen-2-yl]-methanesulfonamide]
11 | 132 to 133 °C | COc1ccc(-c2cc(COc3cccc4cc(NS(=O)(=O)C(F)(F)F)ccc34)ccc2F)cc1 [Example 26, C,C,C-Trifluoro-N-[5-(6-fluoro-4′-methoxy-biphenyl-3-ylmethoxy)-naphthalen-2-yl]-methanesulfonamide]
12 | 131 to 134 °C | O=S(=O)(Nc1ccc2c(OCc3ccc(-c4ccccc4)cc3Cl)cccc2c1)C(F)(F)F [Example 29, N-[5-(3-Chloro-biphenyl-4-ylmethoxy)-naphthalen-2-yl]-C,C,C-trifluoro-methanesulfonamide]
13 | 173 to 174 °C | O=S(=O)(Nc1ccc2c(OCc3cccc(-c4ccc(F)cc4)n3)cccc2c1)C(F)(F)F [Example 42, C,C,C-Trifluoro-N-{5-[6-(4-fluoro-phenyl)-pyridin-2-ylmethoxy]-naphthalen-2-yl}-methanesulfonamide]
14 | 180 to 182 °C | O=S(=O)(Nc1ccc2c(OCc3cccc(-c4ccc(C(F)(F)F)cc4)n3)cccc2c1)C(F)(F)F [Example 43, C,C,C-Trifluoro-N-{5-[6-(4-trifluoromethyl-phenyl)-pyridin-2-ylmethoxy]-naphthalen-2-yl}-methanesulfonamide]
